Where a name gives a salt, the structure may show the parent alone. Each block holds one compound with its values, some of them ahead of it.
Key:
CYP2C9 = molecular target: T1, CYP2C9 (Homo sapiens, UniProt P11712); assay: Cytochrome P450 inhibition assay (P450-Glo) CYP2C9; assay type: in vitro ADME; conditions: compounds 10 μM; miltefosine 10 μM or 1 μM
T1 construct: purchased Corning Inc; host or cells: baculovirus-infected insect cells
From the text: (§1) Cytochrome (CYP) P450 inhibition assay: These assays made use of microsomal preparations of CYP450 (1A2, 2C9, 2C19, 2D6 and 3A4) from baculovirus-infected insect cells (Corning Inc., Corning, NY, USA) and cytochrome c reductase (and cytochrome b5 for CYP450 3A4). For detection of CYP450 activity, the luminescence-based P450-Glo (Promega Corp., Madison, WI, USA) assay system was used that contained a luminogenic CYP450 substrate, lyophilized luciferin detection reagent and reconstitution buffer. The substrates were luciferin derivatives of CYP450-specific substrates that produce (4S)-4,5-dihydro-2-(6-hydroxybenzothiazolyl)-4-thiazolecarboxylic acid (D-luciferin) after cleavage by CYP450 (CYP450 3A4, luciferin-IPA; CYP450 2C19, luciferin-H EGE; CYP450 2C9, luciferin-H; CYP450 2D6, luciferin-ME EGE; CYP450 1A2, luciferin-1A2). CYP450 reactions were initiated by addition of the NADPH regeneration system to the enzyme–substrate mixture with the luciferin detection reagent stopping the reaction and the D-luciferin being converted to oxyluciferin under the production of light being proportional to the CYP450 activity. The CYP450 assays were performed using the Tecan Fluent liquid-handling automation platform (Tecan Group Ltd., Mannedorf, Switzerland) in the 384-well assay format. Compounds were added into an empty 384-well plate (100 nL/well in 1% v/v DMSO) using the Echo 550 Liquid Handler followed by the addition of 5 μL/well of the CYP450/substrate mixture and incubation for 30 min at 37 °C, after which the reaction was initiated by the addition of the 5 μL/well NADPH regeneration system. After a further 30-min incubation at 37 °C, the CYP450 reaction was stopped and the luciferase reaction was simultaneously initiated by addition of 10 μL/well of luciferin detection reagent, followed by an additional 30-min incubation at 37 °C. The luminescence signal was detected using an Infinite M1000 PRO plate reader (Tecan Group Ltd., Mannedorf, Switzerland). The NCs yielded 0% inhibition (1% v/v DMSO) and standard CYP450 specific inhibitors were used as positive controls, yielding 100% inhibition (CYP450 1A2, alpha-naphthoflavone; CYP450 2C9, sulfaphenazole; CYP450 2C19, troglitazone; CYP450 2D6, quinidine; CYP450 3A4, ketoconazole).
Data analysis: The screening data were obtained in triplicate and analysed using ActivityBase (IDBS, Guildford, UK), and outlier elimination in the control wells was performed using the 3-sigma method. Unless stated, dose–response experiments were performed in the 11-point format with the IC50 value, Hill slope, minimum signal and maximum signal for each dose–response curve obtained using a four-parameter logistic fit in the XE module of ActivityBase (IDBS).

WI-38 cells = assay: Cytotoxicity assay WI-38 (CellTiter-Glo); assay type: cell-based; conditions: compounds 10 μM; miltefosine 10 μM or 1 μM
From the text: (§2) Early ADMET profiling: The early ADMET profiling of the new derivatives involved a group of assays widely used in drug development as part of the preclinical in vitro toxicity studies. In particular our panel included hERG inhibition, five cytochromes P450 (CYP1A2, CYP2C9, CYP2C19, CYP2D6 and CYP3A4), two cell-lines (A549, epithelial human lung adenocarcinoma, WI38 and foetal lung fibroblasts), Aurora B kinase and mitochondrial toxicity, in addition to the parasite relevant toxicity against THP1 macrophages. The compounds were tested at 10 μΜ, whilst the miltefosine control was tested at 10 μΜ or 1 μM. The toxicity of the new click phospholipids is depicted in Figure 3 in a traffic light format (from red through yellow to green for decreasing ADMET liabilities).
(§3) Cytotoxicity assay: A549 cells and WI-38 cells were grown on surface-modified T175 cell culture flasks in Dulbecco’s modified Eagle medium with 10% foetal calf serum (FCS), streptomycin (100 μg/mL) and 100 U/mL penicillin G. At about 80% confluency, cells were washed, trypsinized, resuspended and counted in RPMI-1640 medium before seeding (in triplicate) into white 384-well microtiter plates (20 μL) at 500 cells/well and incubated at 37 °C in the presence of 5% CO2 for 24 h. A total of 20 μL/well of CellTiter-Glo (CTG) reagent (Promega Corp., Madison, WI, USA) was added to each well, and plates were read using an EnVision Multilabel 2103 Reader after a 10-min incubation in the dark. Dose–response assays for compounds made use of 11-point curves. Each test compound (200 nL of 10 mM top concentration in 100% v/v DMSO) was added to cells seeded in polystyrene 384-well cell culture microtiter plates using the Echo 550 Liquid Handler and read after 24 h of incubation at 37 °C in the presence of 5% CO2 using CTG as described above. The compounds/positive control (paclitaxel with final concentration of 10 μM and 1% v/v DMSO) and no compound (final 1% v/v DMSO) were added into the 384-well plates (200 nL/well; 1% v/v DMSO) using the Echo 550 Liquid Handler. The raw luminescence signal of each sample was converted into the percentage of cell growth.

[1] = Early ADMET profiling panel, overall; conditions: 10 μM; except for toxicity against THP1 macrophages
From the text: as §2, §3
as §1, with “After a further 30-min incubation at 37 °C, the CYP450 reaction was stopped and the luciferase reaction was simultaneously initiated by addition of 10 μL/well of luciferin detection reagent, followed by an additional 30-min incubation at 37 °C. The luminescence signal was detected using an Infinite M1000 PRO plate reader (Tecan Group Ltd., Mannedorf, Switzerland). The NCs yielded 0% inhibition (1% v/v DMSO) and standard CYP450 specific inhibitors were used as positive controls, yielding 100% inhibition (CYP450 1A2, alpha-naphthoflavone; CYP450 2C9, sulfaphenazole; CYP450 2C19, troglitazone; CYP450 2D6, quinidine; CYP450 3A4, ketoconazole).” left out

T1 sequence (P11712 whole entry): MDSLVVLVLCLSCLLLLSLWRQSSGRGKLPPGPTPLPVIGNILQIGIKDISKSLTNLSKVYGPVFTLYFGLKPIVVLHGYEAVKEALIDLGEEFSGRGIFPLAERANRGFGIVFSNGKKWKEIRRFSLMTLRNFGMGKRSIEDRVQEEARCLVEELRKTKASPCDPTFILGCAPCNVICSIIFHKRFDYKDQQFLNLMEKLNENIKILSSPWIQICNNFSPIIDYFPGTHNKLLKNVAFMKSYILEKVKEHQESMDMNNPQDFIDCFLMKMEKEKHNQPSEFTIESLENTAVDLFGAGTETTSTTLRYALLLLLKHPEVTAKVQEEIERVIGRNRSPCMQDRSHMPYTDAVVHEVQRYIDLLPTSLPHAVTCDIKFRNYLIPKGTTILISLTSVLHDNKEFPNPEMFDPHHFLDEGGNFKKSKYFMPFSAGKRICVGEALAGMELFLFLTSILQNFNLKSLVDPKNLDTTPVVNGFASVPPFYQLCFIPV

Compound: CCCCCc1cn(CCCCCCCCCCCOP(=O)([O-])OCC[N+](C)(C)C)nn1 [Compound 25, 11-(4-pentyl-1H-1,2,3-triazol-1-yl)undecyl (2-(trimethylammonio)ethyl) phosphate inner salt]
% inhibition ± SD at 10 μΜ CYP2C9 (CYP2C9): –23.11%
% cell growth ± SD at 10 μΜ W1-38 (WI-38 cells): 93.46%
ADMET liabilities (overall panel) [1]: no liabilities

Compound: C[N+](C)(C)CCOP(=O)([O-])OCCCCCCCCCCCn1cc(CC2CCCC2)nn1 [Compound 28, 11-(4-(cyclopentylmethyl)-1H-1,2,3-triazol-1-yl)undecyl (2-(trimethylammo nio)ethyl) phosphate inner salt]
% inhibition ± SD at 10 μΜ CYP2C9 (CYP2C9): –23.46%
% cell growth ± SD at 10 μΜ W1-38 (WI-38 cells): 114.04%
ADMET liabilities (overall panel) [1]: no liabilities

Compound: C[N+](C)(C)CCOP(=O)([O-])OCCCCCCCCCCCn1cc(CC2CCCCC2)nn1 [Compound 29, 11-(4-(cyclohexylmethyl)-1H-1,2,3-triazol-1-yl)undecyl (2-(trimethylammonio)ethyl) phosphate inner salt]
% inhibition ± SD at 10 μΜ CYP2C9 (CYP2C9): –22.63%
% cell growth ± SD at 10 μΜ W1-38 (WI-38 cells): 92.93%
ADMET liabilities (overall panel) [1]: no liabilities

% inhibition ± SD at 10 μΜ CYP2C9 (CYP2C9): 8.95%
Compound: C[N+](C)(C)CCOP(=O)([O-])OCCCCCn1cc(CCCCCCCCNC(=O)OCc2ccccc2)nn1 [Compound 31, 5-(4-(8-(((benzyloxy)carbonyl)amino)octyl)-1H-1,2,3-triazol-1-yl)pentyl (2-(trimethylammonio)ethyl) phosphate inner salt]
% cell growth ± SD at 10 μΜ W1-38 (WI-38 cells): 123.63%
ADMET liabilities (overall panel) [1]: no liabilities

Compound: C[N+](C)(C)CCCOP(=O)([O-])OCCCCCCCCCCCn1cc(CC2CCCCC2)nn1 [Compound 33, 11-(4-(cyclohexylmethyl)-1H-1,2,3-triazol-1-yl)undecyl (3-(trimethylammonio)propyl) phosphate inner salt]
% inhibition ± SD at 10 μΜ CYP2C9 (CYP2C9): 19.72%
% cell growth ± SD at 10 μΜ W1-38 (WI-38 cells): 136.32%
ADMET liabilities (overall panel) [1]: no liabilities

Compound: C[N+](C)(C)CCOP(=O)([O-])OCCCCCCCCCCCn1cc(CCCCCCCCC(=O)O)nn1 [Compound 34, 11-(4-(8-carboxyoctyl)-1H-1,2,3-triazol-1-yl)undecyl (2-(trimethylammonio)ethyl) phosphate inner salt]
% inhibition ± SD at 10 μΜ CYP2C9 (CYP2C9): 18.94%
ADMET liabilities (overall panel) [1]: no liabilities

% inhibition ± SD at 10 μΜ CYP2C9 (CYP2C9): 2.57%
Compound: C[N+](C)(C)CCOP(=O)([O-])OCCCCCn1cc(CCCCCCCCN)nn1 [Compound 35, 5-(4-(8-aminooctyl)-1H-1,2,3-triazol-1-yl)pentyl (2-(trimethylammonio)ethyl) phosphate inner salt]
% cell growth ± SD at 10 μΜ W1-38 (WI-38 cells): 119.10%
ADMET liabilities (overall panel) [1]: no liabilities

Compound: CCCCCCCCc1noc(CCCCCOP(=O)([O-])OCC[N+](C)(C)C)n1 [Compound 53, 5-(3-octyl-1,2,4-oxadiazol-5-yl)pentyl (2-(trimethylammonio)ethyl) phosphate inner salt]
% inhibition ± SD at 10 μΜ CYP2C9 (CYP2C9): 5.45%
% cell growth ± SD at 10 μΜ W1-38 (WI-38 cells): 83.83%
ADMET liabilities (overall panel) [1]: no liabilities

Compound: CCCCCCCc1nnc(CCCCCCCCCCOP(=O)([O-])OCC[N+](C)(C)C)o1 [Compound 65, 10-(5-heptyl-1,3,4-oxadiazol-2-yl)decyl (2-(trimethylammonio)ethyl) phosphate inner salt]
% inhibition ± SD at 10 μΜ CYP2C9 (CYP2C9): 28.32%
% cell growth ± SD at 10 μΜ W1-38 (WI-38 cells): 77.74%
ADMET liabilities (overall panel) [1]: no liabilities

Compound: CCCCCCCCCCCCCCCCOP(=O)([O-])OCC[N+](C)(C)C [Miltefosine, hexadecylphosphocholine, reference compound]
% inhibition ± SD at 10 μΜ CYP2C9 (CYP2C9): –0.80%
% cell growth ± SD at 10 μΜ W1-38 (WI-38 cells): 113.50%
